Tests used:
Ae. aegypti = assay: Minimum Effective Dosage (MED) test on treated cloth, mosquito repellency; type: in vivo, Aedes aegypti; details: for mosquito repellent activity against Ae. aegypti (in words): MED test on treated cloth; for Ae. aegypti Minimum Effective Dosage, F1: human subject F1; for Ae. aegypti Minimum Effective Dosage, M1: human subject M1; for Ae. aegypti Minimum Effective Dosage, M2: human subject M2; for Ae. aegypti Minimum Effective Dosage, Average: mean of 3 volunteers; for Ae. aegypti Minimum Effective Dosage, M9: human subject M9; for Ae. aegypti Minimum Effective Dosage, M10: human subject M10
Protocol: Bioassay for mosquito repellent activity: Repellency screening test for experimental chemicals were carried out to identify candidates that might be useful repellents. The repellent efficacy was compared to that of the standard repellent, DEET. Experimental compounds were assessed in one of two ways: (1) a range of concentration was evaluated to determine the minimum effective dosage (MED) which was the concentration threshold of where the repellent began to fail and allowed bites, or (2) a predetermined concentration of each repellent was applied to cloth and the activity was evaluated over several days (or in some cases months) (Katritzky, A. R., et al., Proc. Nat. Acad. Sci. (US), 105, 7359-7364 (2008); Katritzky, A. R., et al., Journal of Med. Entomol., 47: 924-938 (2010)). When conducting assays for repellency, a failure point was also predetermined for those measurements. Since experiments described herein used about 500 female mosquitoes per test, the failure point was set at 1% (equal to 5 bites) received during a test interval. From 3 to 5 volunteers participated in the screening of each set of chemicals.
Minimum Effective Dosage (MED) Test: The MED bioassays on treated cloth were a method of screening to determine the minimum amount of a repellent needed to prevent bites. Experimental compounds were prepared in solution by combining 0.15 g of experimental chemical with 2 mL of acetone in a 7.1 mL screwtop glass vial. This solution was then serially diluted to obtain nine concentrations when applied on to the cloth patch: 1.5, 0.75, 0.375, 0.187, 0.094, 0.047, 0.023, 0.011, and 0.006 mg/cm^2. The standard N,N-diethyl-3-methylbenzamide (DEET) was also tested at the same concentration levels to serve as a control and a comparison for relative repellency. A 50 cm^2 (5 cm×10 cm) patch of muslin cloth was rolled lengthwise and placed into each of the glass vials and scaled with a screwtop so it soaked up the solution. Just prior to the experiment, the pieces of treated cloth were removed from the vials, affixed to card stock tabs (5 cm×3 cm) with staples, and hung with masking tape on a rack to dry and allow acetone to evaporate. Volunteers wore a latex glove over their hands, a nylon stocking over their arm, and then wrapped a plastic Velcro-sealed sleeve over their entire forearm with a 32 cm^2 (4 cm×8 cm) window cut-out to allow mosquitoes to bite through. The nylon stocking acted as a barrier between the dried cloth and the skin, an additional precaution with experimental compounds. Dried cloth patches were stretched across the window in the plastic sleeve and held in place with masking tape. Volunteers placed their sleeve-covered arms into a screened cage for a one minute period with approximately 500 female Ae. aegypti mosquitoes that had been preselected for host-seeking behavior using a draw box (Posey, K. H., and C. E. Schreck, Mosquito News, 41: 566-568 (1981)). […] The MED recorded was the lowest passing concentration level tested for the experimental compound. […] All human volunteers in the study provided informed consent to participate of a protocol approved by the University of Florida Human Use Institutional Review Board (IRB #636-2005).

An. albimanus = assay: as above; type: in vivo, Anopheles albimanus; details: Table 4, highest concentration 1.500 mg/cm^2; for An. albimanus Minimum Effective Dosage, M4: subject M4; for An. albimanus Minimum Effective Dosage, M5: subject M5; for An. albimanus Minimum Effective Dosage, M8: subject M8; for An. albimanus Minimum Effective Dosage, M9: subject M9; for An. albimanus Minimum Effective Dosage, M10: subject M10
[1] = Table 5, subject M4, highest dose 0.375 mg/cm2 (0.187 for 7)
[2] = Table 5, subject M5, highest dose 0.375 mg/cm2 (0.187 for 7)
[3] = Table 5, subject M8, highest dose 0.375 mg/cm2 (0.187 for 7)
[4] = Table 2, highest concentration 1.500 mg/cm^2
[5] = Table 1 preliminary assay, human subject M4, highest concentration 1.500 mg/cm^2
[6] = Table 1 preliminary assay, human subject M5, highest concentration 1.500 mg/cm^2
[7] = Table 1 preliminary assay, human subject M8, highest concentration 1.500 mg/cm^2
[8] = Table 1 preliminary assay, highest concentration 1.500 mg/cm^2

Row | Compound | mosquito repellent activity against Ae. aegypti (in words) (Ae. aegypti) | Ae. aegypti Minimum Effective Dosage, M4 (Ae. aegypti; [1]) | Ae. aegypti Minimum Effective Dosage, M5 (Ae. aegypti; [2]) | Ae. aegypti Minimum Effective Dosage, M8 (Ae. aegypti; [3]) | Ae. aegypti Minimum Effective Dosage, F1 (Ae. aegypti; [4]) | Ae. aegypti Minimum Effective Dosage, M1 (Ae. aegypti; [4]) | Ae. aegypti Minimum Effective Dosage, M2 (Ae. aegypti; [4]) | also measured
1 | CC1(C)C=Cc2cc(CO)ccc2O1 [Compound 7] | ineffective | >0.187 mg/cm^2 | >0.187 mg/cm^2 | >0.187 mg/cm^2 | – | – | – | –
2 | COC(=O)c1c(Cl)ccc2c1C=CC(C)(C)O2 [Compound 16] | – | – | – | – | >1.500 mg/cm^2 | >1.500 mg/cm^2 | >1.500 mg/cm^2 | –
3 | CC1(C)C=Cc2ccc(Cl)cc2O1 [Compound 12] | – | – | – | – | 0.750 mg/cm^2 | 0.750 mg/cm^2 | 0.750 mg/cm^2 | Ae. aegypti Minimum Effective Dosage, Average (Ae. aegypti; Table 2): 0.750 mg/cm^2
4 | COC(=O)c1ccc2c(c1)OC(C)(C)C=C2 [Compound 8] | ineffective | >0.375 mg/cm^2 | >0.375 mg/cm^2 | >0.375 mg/cm^2 | – | – | – | –
5 | COC(=O)c1ccc2c(c1)C=CC(C)(C)O2 [Compound 5] | mixed results | – | – | – | – | – | – | Ae. aegypti Minimum Effective Dosage, M4 (Ae. aegypti; [5]): >1.500 mg/cm^2; Ae. aegypti Minimum Effective Dosage, M5 (Ae. aegypti; [6]): 0.375 mg/cm^2; Ae. aegypti Minimum Effective Dosage, M8 (Ae. aegypti; [7]): 0.187 mg/cm^2; Ae. aegypti Minimum Effective Dosage, M9 (Ae. aegypti; [8]): 0.375 mg/cm^2; Ae. aegypti Minimum Effective Dosage, M10 (Ae. aegypti; [8]): >1.500 mg/cm^2; An. albimanus Minimum Effective Dosage, M4 (An. albimanus): 0.187 mg/cm^2; An. albimanus Minimum Effective Dosage, M5 (An. albimanus): 0.375 mg/cm^2; An. albimanus Minimum Effective Dosage, M8 (An. albimanus): >1.500 mg/cm^2; An. albimanus Minimum Effective Dosage, M9 (An. albimanus): 0.187 mg/cm^2; An. albimanus Minimum Effective Dosage, M10 (An. albimanus): 0.750 mg/cm^2
6 | CC(=O)c1ccc2c(c1O)C=CC(C)(C)O2 [Compound 3] | least repellent | – | – | – | – | – | – | Ae. aegypti Minimum Effective Dosage, M4 (Ae. aegypti; [5]): >1.500 mg/cm^2; Ae. aegypti Minimum Effective Dosage, M5 (Ae. aegypti; [6]): 0.187 mg/cm^2; Ae. aegypti Minimum Effective Dosage, M8 (Ae. aegypti; [7]): >1.500 mg/cm^2; Ae. aegypti Minimum Effective Dosage, M9 (Ae. aegypti; [8]): >1.500 mg/cm^2; Ae. aegypti Minimum Effective Dosage, M10 (Ae. aegypti; [8]): >1.500 mg/cm^2; An. albimanus Minimum Effective Dosage, M4 (An. albimanus): 0.094 mg/cm^2; An. albimanus Minimum Effective Dosage, M5 (An. albimanus): >1.500 mg/cm^2; An. albimanus Minimum Effective Dosage, M8 (An. albimanus): >1.500 mg/cm^2; An. albimanus Minimum Effective Dosage, M9 (An. albimanus): 0.375 mg/cm^2; An. albimanus Minimum Effective Dosage, M10 (An. albimanus): >1.500 mg/cm^2
7 | COC(=O)Cc1ccc2c(c1)C=CC(C)(C)O2 [Compound 10] | – | >0.375 mg/cm^2 | >0.375 mg/cm^2 | >0.375 mg/cm^2 | 0.375 mg/cm^2 | 0.750 mg/cm^2 | 0.375 mg/cm^2 | Ae. aegypti Minimum Effective Dosage, Average (Ae. aegypti; Table 2): 0.500 mg/cm^2
8 | COC(=O)c1cccc2c1C=CC(C)(C)O2 [Compound 6] | ineffective at the highest dosage tested | >0.375 mg/cm^2 | >0.375 mg/cm^2 | >0.375 mg/cm^2 | – | – | – | –
9 | CC1(C)C=Cc2cccc(Cl)c2O1 [Compound 15] | – | – | – | – | 0.094 mg/cm^2 | 0.094 mg/cm^2 | 0.187 mg/cm^2 | Ae. aegypti Minimum Effective Dosage, Average (Ae. aegypti; Table 2): 0.125 mg/cm^2
10 | COc1ccc(CO)c2c1C=CC(C)(C)O2 [Compound 4] | mixed results | – | – | – | – | – | – | Ae. aegypti Minimum Effective Dosage, M4 (Ae. aegypti; [5]): >1.500 mg/cm^2; Ae. aegypti Minimum Effective Dosage, M5 (Ae. aegypti; [6]): 0.375 mg/cm^2; Ae. aegypti Minimum Effective Dosage, M8 (Ae. aegypti; [7]): 0.375 mg/cm^2; Ae. aegypti Minimum Effective Dosage, M9 (Ae. aegypti; [8]): 0.750 mg/cm^2; Ae. aegypti Minimum Effective Dosage, M10 (Ae. aegypti; [8]): >1.500 mg/cm^2; An. albimanus Minimum Effective Dosage, M4 (An. albimanus): >1.500 mg/cm^2; An. albimanus Minimum Effective Dosage, M5 (An. albimanus): >1.500 mg/cm^2; An. albimanus Minimum Effective Dosage, M8 (An. albimanus): >1.500 mg/cm^2; An. albimanus Minimum Effective Dosage, M9 (An. albimanus): 0.750 mg/cm^2; An. albimanus Minimum Effective Dosage, M10 (An. albimanus): >1.500 mg/cm^2
11 | COC(=O)c1ccc(Cl)c2c1C=CC(C)(C)O2 [Compound 14, Methyl 8-chloro-2,2-dimethyl-2H-chromene-5-carboxylate] | – | – | – | – | >1.500 mg/cm^2 | >1.500 mg/cm^2 | >1.500 mg/cm^2 | –
12 | COCCc1ccc2c(c1)C=CC(C)(C)O2 [Compound 19, 6-(2-methoxyethyl)-2,2-dimethyl-2H-chromene] | did not show any improvement of activity | >0.375 mg/cm^2 | >0.375 mg/cm^2 | >0.375 mg/cm^2 | – | – | – | –
13 | COCc1cccc2c1C=CC(C)(C)O2 [Compound 18, 5-(methoxymethyl)-2,2-dimethyl-2H-chromene] | diminished repellent activity | 0.047 mg/cm^2 | 0.047 mg/cm^2 | 0.187 mg/cm^2 | – | – | – | Ae. aegypti Minimum Effective Dosage, Average (Ae. aegypti; Table 5): 0.094 mg/cm^2
